Read-outs that look alike come from different tables or passages of the source.
Legend:
[1] = Rat single-dose IV and oral pharmacokinetics; format: in vivo; conditions: for AUC(0-t): read-out: AUC0-t(last); for half-life: read-out: t1/2,z (converted)
Experimental: METHODS […] Fexinidazole was given as IV and oral administrations to male Sprague Dawley rats according to the following scheme Rat ID Route Dose (mg/kg) Formulation […] IV dose was administered via the tail vein, the oral dose was administered by gastric gavage. 4.2. […] On the day of dosing, approximately 0.3 mL of blood/sampling time were taken from the cannula using heparinized syringes, transferred immediately into tubes (pre-cooled in an ice/water bath) and centrifuged at […] The separated plasma was split into two aliquots, then stored at -80°C until analysis. […] 4.3. Bioanalytical Method Plasma concentrations of Fexinidazole were determined by a LC-MS-MS method. The lower limit of the bioanalytical method was 5.12 ng/mL. […] Details of the bioanalytical method were reported in Appendix 2 and the analytical performance was reported in Appendix 3. 4.4. […] For the calculations, pre-dose concentrations were set equal to C0.033 and equal to zero after IV and oral administrations, respectively. […] regression line. […] Absolute bioavailability was calculated from the ratio of the average oral to IV dose- normalized AUC0-∞ values. […] Plasma concentrations and pharmacokinetic parameters of Fexinidazole were reported to three significant figures. 5. RESULTS Mean ±SD systemic exposure parameters of Fexinidazole after IV and oral administrations of the compound are reported in Table 1. […] This side […] After oral administration, detectable concentrations of Fexinidazole were measured at the […] Mean ±SD maximal plasma concentration of Fexinidazole was 147 ±37 ng/mL, achieved 2 h post dosing. The concentrations of the compound were detectable up to the end of the experiment (8 h). […] Mean ±SD AUC0-∞ was 662 ±106 ng⋅h/mL. […] 6. CONCLUSIONS After both doses, low variability of the pharmacokinetic parameters of Fexinidazole was observed. […] Report Amendment for Study 0327-2007 2. […] METHODS […] The lower limit of the bioanalytical method was 5.00 ng/mL for both compounds. […] Details of the bioanalytical method are reported in Table 1 and the analytical performances of calibration standards are reported in Tables 2-5. 3.2.

dog hepatocytes = assay: Hepatocyte intrinsic clearance and metabolite profile; format: in vitro ADME; conditions: fexinidazole 10 µM
Experimental: Fexinidazole was incubated with cryopreserved hepatocytes from male CD-1 mice, male Sprague Dawley rats, male beagle dogs, male cynomolgus monkeys, and from pooled white or African-American human donor samples (purchased commercially), at concentrations of 1 µM and 10 µM. […] The incubated samples were analyzed by LC-MS after extraction into acetonitrile.
A quality control analysis of fexinidazole was performed via 1H-NMR in DMSO and LC- […]
provided by the Swiss Tropical Institute (Basel, Switzerland).
Reagents and solvents were of analytical grade and obtained from Sigma-Aldrich (St. Louis, […]
Cryopreserved hepatocytes from the male CD1 mouse, lot CSI; male Sprague Dawley rat, lot LPL; male beagle dog, lot BWX; male cynomolgus monkey, lot EHH; and pooled human samples, lot MJI, were purchased from In Vitro Technologies Inc (Baltimore, Maryland, […]
5.4. In vitro Incubations
On the day of the experiment a 10 mM stock solution of fexinidazole in DMSO was prepared and, within 3 hours, aliquots of this freshly prepared solution, after suitable dilution, were added to the incubation matrix, to reach fexinidazole final concentrations of 1 and 10 µM. The final percentage of DMSO was 0.01% in the incubation samples for the […]
On the day of experiment, the cryopreserved hepatocytes were thawed following the detailed instructions provided by the supplier.
The number of viable cells was determined using a Trypan Blue exclusion method.
5.4.1. Intrinsic Clearance Study […]
µM with mouse, rat, dog, monkey and human hepatocytes (300000 cells/mL for the mouse and 1 million cells/mL for the other species) in a final incubation volume of 0.75 mL […]
Incubations were performed in duplicate in a 48-well plate under shaking. Sampling was performed using an automatic liquid handling system (Multiprobe II EX, Packard). At 0, 1, 5, 10, 15, 20, 30, 60 and 120 minutes, 50 µL aliquots of the incubates were taken, then 80 µL of ice-cold acetonitrile and 20 µL of 1 µM warfarin in acetonitrile (internal standard) were added, and samples centrifuged at 2000 rpm for 20 min. The supernatant was analyzed by LC-MS/MS. […]
the medium alone at t = 0 and 120 minutes.
For the determination of phase I and phase II activity of hepatocytes, 7-ethoxycoumarin (7-EC) 1 µM, and 7-hydroxycoumarin (7-HC) 30 µM were used as positive controls and incubated under the same conditions as fexinidazole. Aliquots of incubates were taken at 0, 10, 20, 30, 60 and 120 minutes and processed as fexinidazole samples.
5.4.2. Metabolite Profile Study
For metabolite profiling, fexinidazole was incubated at a concentration of 10 µM with mouse, rat, dog, monkey and human hepatocytes (300000 cells/mL for the mouse and 1 million cells/mL for the other species) in a final incubation volume of 2 mL Leibovitz L-15 […]
Aliquots of the incubation samples were taken at t = 0, 30 and 120 minutes; the metabolism was stopped by the addition of an equal volume of cold acetonitrile and the samples centrifuged at 1500 rpm for 20 min. The supernatant was stored at -20°C until analysis. Control incubations were performed with the compound in the medium alone […]
5.5. Analysis of Samples for Intrinsic Clearance Determination
The analysis of the samples for intrinsic clearance determination was performed by an LC-MS/MS method, using the following conditions:
HPLC Equipment and Conditions
HPLC system Agilent 1100 binary pump (Agilent, Palo Alto, USA)
Autosampler CTC Pal (Alfatech, San Jose, USA)
Analytical column Guard Column SB-C8 4.6 x 12.5 mm, 5 µm (Zorbax)
Column temperature ambient
Mobile phase A 10 mM ammonium formate pH 4.0: acetonitrile (95:5, v:v)
Mobile phase B 10 mM ammonium formate pH 4.0: acetonitrile (5:95, v:v) […]
Gradient conditions Step Total time (min) flow (µL/min) %A % B […]
MS Equipment and Conditions
Mass spectrometer API 4000 Triple Quadrupole (MDS-Sciex, Toronto, […]
Source Turbo Ion Spray (TIS)
Ion mode Positive for fexinidazole and 7-EC.
Negative for 7-HC, 7-HC sulphate and 7-HC glucuronide.

[2] = Sprague Dawley, plasma, fexinidazole 5 mg/kg IV, male SD rats, read-out: Cmax (C0.033 for parent)
[3] = male, Sprague Dawley, plasma, fexinidazole 5 mg/kg IV
[4] = male, Sprague Dawley, plasma, fexinidazole 10 mg/kg oral
[5] = male, Sprague Dawley, plasma, fexinidazole 10 mg/kg oral, read-out: Cmax

SMILES | Cmax [1, 2] | Tmax [1, 3] | AUC(0-t) [1, 3] | Tmax [1, 4] | AUC(0-t) [1, 4] | Cmax [1, 5] | % of total drug related material (dog hepatocytes; 30 min) | % of total drug related material (dog hepatocytes; 120 min) | % of total drug related material (dog hepatocytes; t=0) | clearance ([1]; male, Sprague Dawley, plasma, 5 mg/kg IV) | Vd ([1]; male, Sprague Dawley, plasma, 5 mg/kg IV, read-out: Vss) | half-life [1, 3] | half-life [1, 4] | AUC(0-inf) ([1]; male, Sprague Dawley, plasma, iv, 5 mg/kg, fexinidazole 5 mg/kg IV, read-out: AUC0-∞) | bioavailability ([1]; male, Sprague Dawley, plasma, oral, 10 mg/kg, oral 10 mg/kg vs IV 5 mg/kg, read-out: Absolute bioavailability F) | AUC(0-inf) ([1]; male, Sprague Dawley, plasma, po, 10 mg/kg, fexinidazole 10 mg/kg oral, read-out: AUC0-∞) | AUC(0-inf) ([1]; male, Sprague Dawley, plasma, po, 10 mg/kg, oral, normalized to 1 mg/kg, read-out: AUC0-∞, norm) | Absolute bioavailability F ([1]; oral 10 mg/kg vs IV 5 mg/kg)
Cn1c([N+](=O)[O-])cnc1COc1ccc(S(C)(=O)=O)cc1 [Fexinidazole sulfone] | 2090 ng/mL | 5.33 h | 9590 ng·h/mL | 6 h | 14300 ng·h/mL | 2660 ng/mL | 4% | 15% | – | – | – | – | – | – | – | – | – | –
Cn1c([N+](=O)[O-])cnc1COc1ccc([S+](C)[O-])cc1 (centres unmarked) [Fexinidazole sulfoxide] | 3070 ng/mL | 1 h | 9440 ng·h/mL | 2 h | 16200 ng·h/mL | 3520 ng/mL | 94% | 84% | 50% | – | – | – | – | – | – | – | – | –
CSc1ccc(OCc2ncc([N+](=O)[O-])n2C)cc1 [Fexinidazole, 1-methyl-2-((p-(methylthio)phenoxy)methyl)-5-nitroimidazole] | 3660 ± 217 ng/mL | – | 1160 ng·h/mL | 2 h | 631 ng·h/mL | 147 ± 36.6 ng/mL | – | – | 50% | 76.2 mL/min/kg | 4.69 L/kg | 1.71 h | 1.72 h | 1200 ± 26.5 ng·h/mL | 30% | 662 ± 106 ng·h/mL | 65.1 ng·h/mL | 29.7%

Source: publication PMC3006138, “Fexinidazole – A New Oral Nitroimidazole Drug Candidate Entering Clinical Development for the Treatment of Sleeping Sickness” (PLoS Neglected Tropical Diseases, 2010)
